Experimental data published in US5691348A, “Pyridyl imidazole derivatives and processes for the preparation thereof” (Daewoo Electronics Co., Ltd., priority 1994, dated 1997).

Key:
[1] = Metabolite analysis: enzyme digestion test with rat liver microsome, HPLC; assay type: in vitro ADME; conditions: 100 μM, 1 hour at 37° C.; for metabolite from the enzymatic digestion: rat liver microsome, HPLC (FIG. 1)
Description: Enzyme digestion test was executed in order to detect the metabolite of the test compound in vivo.
500 μg of NADP^+, 11 U of glucose-6-phosphate dehydrogenase and 200 μg of rat liver microsome were added to 1 ml of 0.1M phosphate buffer (pH 7.4), and to the resulting solution was added glucose-6-phosphate to a concentration of 10 mM. The resultant was incubated for 1 minute at 37° C. and added with each of the present compound (Example 3) and the Merck compound to a concentration of 100 μM. The mixture was incubated for 1 hour at 37° C., and then was added with 2 ml of dichloromethan to cease the reaction. The resultant was extracted with dichloromethan and the extract was evaporated to obtain a residue. The reside was analyzed using HPLC after dissolving in a mobile phase of the HPLC.
Column: Nucleosil phenyl column (0.46×25 cm, 5 μM)
Mobile phase: acetonitrile (50 mM, pH 5.0; 35:65, v/v)
FIG. 1 is a HPLC chart showing the result of the enzyme digestion test of the Merck compound and the compound of Example 3.

angiotensin II receptor = assay: Angiotensin II receptor binding assay ([3H] angiotensin II); design: species or system rat (Sprague-Dawley adrenal cortex/medulla; Wistar liver); conditions: 25° C., 60 minutes, test concentration not given
Description: 1. Angiotensin II receptor binding assay
In accordance with the procedure disclosed in Chiu, A. T. et al., Eur. J. Pharm., 157, 13(1981), a ligand marked with a radioisotope was reacted with an angiotensin II receptor and the reactant was filtered with a glass fiber to remove unreacted ligand. After washing the filter, the amount of the remaining isotope was measured to determine the binding activity of the ligand, as described below in detail.
Sprague-Dawley rats and Wistar rats of 250 to 350 g (from The Korea Research Institute of Chemical Technology) were tested and the test procedures were carried out at 4° C., unless otherwise specified. Adrenal gland was separated from the Sprague-Dawley rats (liver, in the case of Wistar rats) into cortex and medulla. The separated adrenal cortex and medulla were washed with a sucrose buffer solution (0.2M sucrose, 1 mM EDTA, 10 mM Tris, Ph 7.2) and homogenized in the same buffer solution by using a Teflon pestle and a Brinkmann homogenizer. The homogenates were centrifuged at 3,000× g for 10 minutes to remove precipitates and further centrifuged at 12,000× g for 13 minutes. The final supernatants were centrifuged at 102,000× g for 1 hour to obtain precipitates, which were washed with a Tris buffer solution (50 mM Tris, 5 mM MgCl2, pH 7.2) and recentrifuged at 102,000× g for 1 hour. The resulting precipitates were immediately processed at the following step or stored at -70° C.
The precipitates were suspended in a Tris buffer solution. The amount of protein was determined by using a Bio-Rad DC protein analyzing kit and the protein concentration was adjusted to the amounts of: 0.2 to 0.3 mg/ml (Sprague-Dawley rat: adrenal cortex), 1.5 to 2.0 mg/ml (Sprague-Dawley rat: adrenal medulla), and 1.5 to 2.0 mg/ml (Wistar rat: liver). To the suspension, bovine serum albumin(BSA) was added to a concentration of 0.25 wt % and the resultant was immediately processed at the following step or stored at -70° C.
50 μl (based on ligand) of [^3 H] angiotensin II (NEN, NET-446) and 10 μl of each of the test compounds with various concentrations were added to the buffer solution (50 mM Tris (pH 7.2), 5 mM MgCl2, 0.25% BSA) to adjust the final volume to be 0.5 ml. 100 μl of the receptor suspension was added thereto and the resulting solution was reacted for 60 minutes while stirring in a water bath at 25° C. 3 ml of cold buffer solution for analysis was added to cease the reaction. The isotope which was bound to the receptor was isolated from the resultant by using Brandel Cell Harvester System with Whatman glass fiber GF/C. After washing the filter, the radioactivity of the filter was determined by using a liquid scintillation counter. Binding inhibition(%) of the test compound was calculated as follows:
Binding Inhibition(%)=[{(T-B)-(S-B)}/(T-B)]×100
wherein T is the radioactivity (cpm) of the reaction product untreated with the test compound, S is the radioactivity (cpm) of the reaction product treated with the test compound, and B is the radioactivity (cpm) of blank test.

unanesthetized dogs [2] = assay: Blood pressure variation with time in unanesthetized dogs; assay type: in vivo, dog; conditions: 1.0 mg, oral
Description: (§1) A number of dog was fed freely in a feeding room and those weighing 7 to 12 kg in good health were selected regardless of their gender.
(§2) The test dog was anesthetized with 30 mg/kg of pentobarbital sodium by intravenous injection and the left femoral artery and femoral vein were separated carefully. Silicone catheter, specially prepared and filled with saline treated with heparin (1,000 IU/ml), was cannulated into the blood vessels. After the surgery, the dog was constrained to measure the blood pressure continuously with Gould 2000 physiograph adapted to a Grass P23XL pressure transducer; and the heart rate was monitored with ECG/Biotacho amplifier. The dog was tested at least 2 days after the surgery.
(§3) 10 mg/kg of furosemide was injected intramuscularly 18 hours (in case of intravenous injection, 2 hours) before the beginning of the test (administration of the test compound) to improve the activity of renin in blood plasma. After the injection of furosemide, neither food nor water was provided. […] The blood pressure and heart rate were measured up to 8 hours after the administration of each test compound.

renal hypertensive rat [3] = assay: Blood pressure lowering effect in renal hypertension; assay type: in vivo, Sprague-Dawley rat; conditions: Amount 3 mg; intravenous or oral (not specified)
Excerpt: (§4) To induce renal hypertension, left renal artery of 4 week-old male Sprague-Dawley rat (from The Korea Research Institute of Chemical Technology) was ligated. The rat was anesthetized with ether and the surgical region on the left abdomen of the rat was shaved, disinfected, and then incised about 1 cm vertically. The renal artery near abdominal aorta was isolated carefully from surrounding tissues and veins, and then ligated completely with a suture (4/0 sterile surgical silk). The muscular strata and skin of the surgical area were sutured with a suture (4/0 sterile surgical silk). The surgical region was disinfected to prevent infection and thereafter, 200 to 250 mg/kg/day of cephazolin sodium was injected intramuscularly for 2 days. 6 to 8 days after the ligation, rats showing systolic pressure of more than 180 mmHg were selected for renal hypertension test. The blood pressure was determined by a tail-cuff method from the tail under unanesthetized condition (Gerold, M. et al., Arzneimittel-Forsch., 18, 1285(1968)).
(§5) Each of the compounds to be tested was administered intravenously or orally into the renal hypertensive rat. The blood pressure of the rat was determined by direct method (Chiu, A. T. et al., J. Pharmacol. Exp. Ther., 250, 867(1989)) using a catheter. The rat was anesthetized with ketamine hydrochloride (125 mg/kg, i.p.) and a catheter was filled with saline and inserted into a carotid artery and […]. The surgical area was sutured with a metal clip. The rat was relaxed at least 3 hours and the catheter in the carotid artery was adapted to an isotec pressure transducer to determine the blood pressure and heart rate with a physiograph (Linearcorder WR3310). After the blood pressure was stabilized, the test compound was administered intravenously or orally. For intravenous administration, the administered volume and washing volume were 1.0 ml/kg and 0.2 ml, respectively. The blood pressure and heart rate were measured in regular intervals up to 24 hours after the administration of the test compound and compared with those measured after the administration of the control compound Losartan.
(§6) The test compound was dissolved in 0.05N KOH for intravenous administration and suspended in Tween 80 for oral administration.

renal hypertensive rat [4] = assay: Blood pressure lowering effect with respect to dose (renal hypertensive rats); assay type: in vivo, Sprague-Dawley rat; conditions: oral
Excerpt: as §4, §5, §6
The present compounds, Losartan(Dup 753) and the Merck compound were administrated orally to rats in 10, 3 and 1 mg/kg under the same condition as in (ii) and the blood pressure lowering effect was determined.

unanesthetized dogs [5] = assay: Maximum blood pressure lowering effect in unanesthetized dogs at different amounts; assay type: in vivo, dog
Description: as §1, §2
10 mg/kg of furosemide was injected intramuscularly 18 hours (in case of intravenous injection, 2 hours) before the beginning of the test (administration of the test compound) to improve the activity of renin in blood plasma. After the injection of furosemide, neither food nor water was provided. The test compound was suspended in Tween 80 and administered in an amount of 20 mg/kg orally. The blood pressure and heart rate were measured up to 8 hours after the administration of each test compound.
The maximum blood pressure lowering effect of the present compounds and the control compounds were determined in different amounts of administration using the same method as (i) and the results are given in Table 4.

renal hypertensive rats = assay: Duration of action in renal hypertensive rats; assay type: in vivo, Sprague-Dawley rat; conditions: 3 mg/kg oral
Excerpt: as §4, §5, §6
The compound of Example 1 and the Merck compound were tested using the hypertensive rats of test 2(i). 3 mg/kg of each compound was administered orally and blood pressure lowering effect with time was determined to measure the duration of action of the compounds.

[6] = tested on: furosemide-administered dogs; assay: Duration of action in furosemide-administered dogs; assay type: in vivo, dog; conditions: 0.3 mg oral
Description: as §1, §2, §3
The compound of Example 1 and the Merck compound were administered orally to the furosemide-administrated dogs as in test 3(i), and blood pressure lowering effect was measured with time.

SMILES: CCCCc1nc2cc(-c3cccc[n+]3[O-])c(C)nc2n1Cc1ccc(-c2ccccc2-c2nn[nH]n2)cc1 [Example 3, 2-Butyl-5-methyl-6-(1-oxy-pyridin-2-yl)-3-[2'-(1H-tetrazol-5-yl)-biphenyl-4-ylmethyl]-3H-imidazo[4,5-b]pyridine]
- stability against the enzymatic digestion ([1]; in contrast with the Merck compound): good stability against the enzymatic digestion
- metabolite from the enzymatic digestion [1]: has no metabolite from the enzymatic digestion
- Binding Inhibition (angiotensin II receptor): 86.4%
- Maximum Blood Pressure Lowering Effect (unanesthetized dogs [2]; 0.5 hr): -16.2%
- Maximum Blood Pressure Lowering Effect (unanesthetized dogs [2]; 1 hr): -23.8%
- Maximum Blood Pressure Lowering Effect (unanesthetized dogs [2]; 2 hr): -30.0%
- Maximum Blood Pressure Lowering Effect (unanesthetized dogs [2]; 4 hr): -32.7%
- Maximum Blood Pressure Lowering Effect (unanesthetized dogs [2]; 6 hr): -35.5%
- Maximum Blood Pressure Lowering Effect (unanesthetized dogs [2]; 8 hr): -33.0%
- Maximum Blood Pressure Lowering Effect (renal hypertensive rat [3]): -50%
- Maximum Blood Pressure Lowering Effect (renal hypertensive rat [4]; 1 mg/kg): -20%
- Maximum Blood Pressure Lowering Effect (unanesthetized dogs [5]; 0.1 mg/kg): -10%
- Maximum Blood Pressure Lowering Effect (unanesthetized dogs [5]; 0.3 mg/kg): -11%
- Maximum Blood Pressure Lowering Effect (unanesthetized dogs [5]; 1 mg/kg): -37%

SMILES: CCc1nc2c(C)cc(C)nc2n1Cc1ccc(-c2ccccc2-c2nnn[nH]2)cc1 [Merck Compound, reference compound]
- metabolite from the enzymatic digestion [1]: has a metabolite
- Maximum Blood Pressure Lowering Effect (renal hypertensive rats; 0 min): 0%
- Maximum Blood Pressure Lowering Effect (renal hypertensive rats; 10 min): -15%
- Maximum Blood Pressure Lowering Effect (renal hypertensive rats; 20 min): -27%
- Maximum Blood Pressure Lowering Effect (renal hypertensive rats; 30 min): -28%
- Maximum Blood Pressure Lowering Effect (renal hypertensive rats; 60 min): -26%
- Maximum Blood Pressure Lowering Effect (renal hypertensive rats; 90 min): -28%
- Maximum Blood Pressure Lowering Effect (renal hypertensive rats; 120 min): -25%
- Maximum Blood Pressure Lowering Effect (renal hypertensive rats; 240 min): -40%
- Maximum Blood Pressure Lowering Effect (renal hypertensive rats; 360 min): -36%
- Maximum Blood Pressure Lowering Effect (renal hypertensive rats; 1320 min): -35%
- Maximum Blood Pressure Lowering Effect (renal hypertensive rats; 1440 min): -40%
- Maximum Blood Pressure Lowering Effect (renal hypertensive rat [4]; 3 mg/kg): -40%
- Maximum Blood Pressure Lowering Effect (unanesthetized dogs [5]; 0.1 mg/kg): -20%
- Maximum Blood Pressure Lowering Effect (unanesthetized dogs [5]; 0.3 mg/kg): -24%
- Maximum Blood Pressure Lowering Effect ([6]; 0 min): 0.0%
- Maximum Blood Pressure Lowering Effect ([6]; 10 min): -5.0%
- Maximum Blood Pressure Lowering Effect ([6]; 20 min): -12.2%
- Maximum Blood Pressure Lowering Effect ([6]; 30 min): -14.4%
- Maximum Blood Pressure Lowering Effect ([6]; 60 min): -20.1%
- Maximum Blood Pressure Lowering Effect ([6]; 90 min): -24.4%
- Maximum Blood Pressure Lowering Effect ([6]; 120 min): -19.1%
- Maximum Blood Pressure Lowering Effect ([6]; 150 min): -24.2%
- Maximum Blood Pressure Lowering Effect ([6]; 180 min): -18.9%
- Maximum Blood Pressure Lowering Effect ([6]; 210 min): -17.0%
- Maximum Blood Pressure Lowering Effect ([6]; 240 min): -17.0%
- Maximum Blood Pressure Lowering Effect ([6]; 270 min): -13.4%
- Maximum Blood Pressure Lowering Effect ([6]; 300 min): -14.9%
- Maximum Blood Pressure Lowering Effect ([6]; 330 min): -15.6%
- Maximum Blood Pressure Lowering Effect ([6]; 360 min): -15.6%
- Maximum Blood Pressure Lowering Effect ([6]; 390 min): -11.4%
- Maximum Blood Pressure Lowering Effect ([6]; 420 min): -10.7%
- Maximum Blood Pressure Lowering Effect ([6]; 450 min): -11.4%
- Maximum Blood Pressure Lowering Effect ([6]; 480 min): -13.8%
- time for which the maximum blood pressure lowering effect lasted after the administration ([6]; Table 6, dogs): 2 to 3 h
